Source: the NIST ThermoML archive (doi:10.1021/je700672f)

Key:
[1] = 101 kPa, Liquid
[2] = xn = mol fraction of the nth substance listed; settings: 101 kPa, Liquid, x2 = 0

OCCOCCO [diethylene glycol]
[1]
Settings	mass density [kg/m3]	viscosity [mPa·s]
283.15 K	1124.24	–
288.15 K	1120.65	–
293.15 K	1117.05	36.43
298.15 K	1113.47	–
303.15 K	1109.88	22.09
308.15 K	1106.29	–
313.15 K	1102.7	14.56
318.15 K	1099.11	–
323.15 K	1095.51	10.03
328.15 K	1091.91	–
333.15 K	1088.3	7.22
338.15 K	1084.68	–
343.15 K	1081.05	5.369
348.15 K	1077.4	–
353.15 K	1073.74	4.139

O [water] + OCCOCCO
[2]
Settings	mass density [kg/m3]	viscosity [mPa·s]
283.15 K	999.7	–
293.15 K	–	1.013
303.15 K	995.55	0.811
313.15 K	–	0.667
323.15 K	988.03	0.561
328.15 K	985.69	–
333.15 K	983.19	0.477
338.15 K	980.55	–
343.15 K	977.76	0.413
348.15 K	974.84	–
353.15 K	971.79	0.362
